One may read the EC50 as the concentration that produces a half-maximal response. Read a low EC50 as greater potency.

In test [1] the target is T1, PBP3 from Escherichia coli (K-12) (Escherichia coli, UniProt P0AD68).
T1 construct: made in house
The test is described as follows: Bocillin-FL fluorescence polarization competition binding, E. coli PBP3. A digest of the protocol: (§1)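 Purified PBPs pre-incubated with inhibitor (E. coli PBP3 1.5 μM, 30 min; P. aeruginosa PBP3 0.75 μM, A. baumannii PBP1a 1 μM and PBP3 0.2 μM, 15 min), then Bocillin-FL 0.1 μM (0.05 μM for PBP1a) added; FP read up to 60 min. EC50 = concentration halving bound Bocillin-FL.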

The target in test [2] is T2, PBP3 from Pseudomonas aeruginosa (PAO1) (Pseudomonas aeruginosa, UniProt G3XD46).
T2 construct: made in house
T2 sequence (G3XD46 whole entry): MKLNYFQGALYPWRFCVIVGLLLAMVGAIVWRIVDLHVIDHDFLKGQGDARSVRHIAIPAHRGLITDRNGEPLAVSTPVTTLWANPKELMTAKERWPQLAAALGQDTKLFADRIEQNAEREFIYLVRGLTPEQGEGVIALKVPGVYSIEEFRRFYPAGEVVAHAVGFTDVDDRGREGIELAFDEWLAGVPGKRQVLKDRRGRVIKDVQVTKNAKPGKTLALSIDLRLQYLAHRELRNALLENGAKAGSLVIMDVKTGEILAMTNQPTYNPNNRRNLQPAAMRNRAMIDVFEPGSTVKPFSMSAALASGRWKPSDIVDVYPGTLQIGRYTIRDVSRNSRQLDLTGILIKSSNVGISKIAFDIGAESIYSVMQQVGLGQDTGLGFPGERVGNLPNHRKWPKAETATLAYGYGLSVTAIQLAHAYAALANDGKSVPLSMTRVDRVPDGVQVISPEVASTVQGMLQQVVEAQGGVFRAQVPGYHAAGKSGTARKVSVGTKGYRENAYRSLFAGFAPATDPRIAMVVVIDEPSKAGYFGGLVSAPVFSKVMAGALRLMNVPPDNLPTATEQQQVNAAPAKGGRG
The test is described as follows: Bocillin-FL fluorescence polarization competition binding, P. aeruginosa PBP3. The settings on record: Binding affinity to P. aeruginosa PBP3; fluorescence polarization competition binding assay using Bocillin-FL; read-out: P. aeruginosa PBP3 Potency. In a few lines:
as §1
On the technique in general: In fluorescence polarisation assays a small probe gives low polarisation when free and higher when bound to something large.

The target of test [3] is T3, PBP3 from Acinetobacter baumannii (ATCC 19606) (Acinetobacter baumannii, UniProt A0ABX6CK25).
T3 sequence (A0ABX6CK25 64-610): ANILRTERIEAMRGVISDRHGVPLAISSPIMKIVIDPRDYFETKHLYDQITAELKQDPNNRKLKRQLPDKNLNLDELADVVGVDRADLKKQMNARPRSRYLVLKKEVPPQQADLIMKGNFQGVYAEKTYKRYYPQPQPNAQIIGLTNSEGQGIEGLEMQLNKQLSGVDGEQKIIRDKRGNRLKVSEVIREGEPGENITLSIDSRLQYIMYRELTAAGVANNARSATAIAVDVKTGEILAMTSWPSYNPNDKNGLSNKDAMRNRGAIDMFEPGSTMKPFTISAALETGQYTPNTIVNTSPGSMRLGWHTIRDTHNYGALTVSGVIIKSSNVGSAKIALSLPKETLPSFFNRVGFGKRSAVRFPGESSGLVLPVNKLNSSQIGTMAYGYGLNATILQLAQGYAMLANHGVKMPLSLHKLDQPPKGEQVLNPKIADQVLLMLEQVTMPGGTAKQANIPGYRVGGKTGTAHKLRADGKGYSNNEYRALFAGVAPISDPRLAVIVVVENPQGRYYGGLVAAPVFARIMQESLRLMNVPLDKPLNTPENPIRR
The test is described as follows: Bocillin-FL fluorescence polarization competition binding, A. baumannii PBP3. The settings on record: fluorescence polarization competition binding assay using Bocillin-FL; read-out: A. baumannii PBP3 Potency. A digest of the protocol: as §1

Test [4] concerns A. baumannii ATCC 17978. The test is described as follows: microbe, parasite or virus in culture. It counts as cell-based. The conditions noted are these: Acinetobacter baumannii, ATCC17978, read-out: MIC, A. baumannii ATCC 17978.
Test [5] deals with P. aeruginosa (ΔmexAB-oprM). The test is described as follows: Broth microdilution MIC in iron-depleted CAMHB (IDM). Format: cell-based. The settings on record: Pseudomonas aeruginosa; iron-depleted CAMHB (IDM); […]; read-out: Minimum inhibitory concentration, P. aeruginosa ΔmexAB-oprM. In general terms: Dilution methods test growth across graded concentrations, often in twofold steps.

Test [6] concerns P. aeruginosa CDC-0054. As to the kind of experiment: microbe, parasite or virus in culture. It counts as cell-based. The settings on record: Pseudomonas aeruginosa, CDC0054, read-out: Minimum inhibitory concentration, P. aeruginosa CDC-0054.
Test [7] relates to P. aeruginosa CDC-0090. As to the kind of experiment: microbe, parasite or virus in culture. The settings on record: Pseudomonas aeruginosa, CDC0090, read-out: Minimum inhibitory concentration, P. aeruginosa CDC-0090. It counts as cell-based.
Test [8] concerns A. baumannii 1258916. The test is described as follows: microbe, parasite or virus in culture. Format: cell-based, Acinetobacter baumannii. The settings on record: Acinetobacter baumannii, 1258916, read-out: MIC, A. baumannii 1258916.
Test [9] deals with A. baumannii CDC-0045. The test is described as follows: microbe, parasite or virus in culture. Format: cell-based. The conditions noted are these: Acinetobacter baumannii, CDC0045, read-out: MIC, A. baumannii CDC-0045.
The subject of test [10] is A. baumannii CDC-0083. As to the kind of experiment: microbe, parasite or virus in culture. Format: cell-based. The settings on record: Acinetobacter baumannii, CDC0083, read-out: MIC, A. baumannii CDC-0083.
Test [11] has as its system B. thailandensis ATCC 700388. The test is described as follows: microbe, parasite or virus in culture. Format: cell-based. The conditions noted are these: Burkholderia thailandensis, ATCC700388, read-out: Minimum inhibitory concentration (MIC), B. thailandensis ATCC 700388.

In brackets after ≈: the same amount, converted by molar mass. Where only a bound is given, the exact number is not on record here.

T1 sequence (P0AD68 1-577): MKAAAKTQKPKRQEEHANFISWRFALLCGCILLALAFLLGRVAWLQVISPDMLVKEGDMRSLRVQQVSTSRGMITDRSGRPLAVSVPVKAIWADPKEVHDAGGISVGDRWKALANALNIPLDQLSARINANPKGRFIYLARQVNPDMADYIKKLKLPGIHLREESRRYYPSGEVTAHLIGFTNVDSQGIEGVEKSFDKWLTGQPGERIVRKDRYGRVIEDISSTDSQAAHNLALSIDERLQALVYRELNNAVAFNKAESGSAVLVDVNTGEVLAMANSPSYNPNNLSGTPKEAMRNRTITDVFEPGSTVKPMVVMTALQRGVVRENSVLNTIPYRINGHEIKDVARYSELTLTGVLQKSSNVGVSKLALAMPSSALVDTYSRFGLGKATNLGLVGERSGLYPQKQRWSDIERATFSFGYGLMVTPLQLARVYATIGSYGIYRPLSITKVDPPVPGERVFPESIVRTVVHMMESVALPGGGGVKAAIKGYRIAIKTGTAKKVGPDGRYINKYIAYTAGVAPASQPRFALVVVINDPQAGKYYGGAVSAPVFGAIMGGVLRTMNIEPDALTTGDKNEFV

For `O=C(NCCCN1CCN(C(=O)NC(C(=O)N[C@H]2Cc3ccc(F)c(C(=O)O)c3OB2O)c2cc(F)c(O)c(O)c2Cl)C(=O)C1=O)c1ccc(F)c(O)c1` (stereo partly drawn) [Example 409, (3R)-3-(2-(2-chloro-5-fluoro-3,4-dihydroxyphenyl)-2-(4-(3-(4-fluoro-3-hydroxybenzamido)propyl)-2,3-dioxopiperazine-1-carboxamido)acetamido)-7-fluoro-2-hydroxy-3,4-dihydro-2H-benzo[e][1,2]oxaborinine-8-carboxylic acid], the EC50 in test [1] was < 10 µM. Besides, the IC50 in test [2] and in test [3] was < 10 µM each time. The MIC was < 1 µg/mL in test [4]; < 1 µg/mL in [5]; < 1 µg/mL in test [6]; < 1 µg/mL in test [7]; 2 to 4 µg/mL (≈ 2.57 to 5.14 µM) in test [8]; < 1 µg/mL in test [9]. For the same compound, the MIC in [10] is < 1 µg/mL; in [11] it was 2 to 4 µg/mL (≈ 2.57 to 5.14 µM).
For `O=C(NCCCN1CCN(C(=O)NC(C(=O)N[C@H]2Cc3ccc(F)c(C(=O)O)c3OB2O)c2cc(F)c(O)c(O)c2Cl)C(=O)C1=O)c1cc(O)cc(F)c1` (stereo partly drawn) [Example 410, (3R)-3-(2-(2-chloro-5-fluoro-3,4-dihydroxyphenyl)-2-(4-(3-(3-fluoro-5-hydroxybenzamido)propyl)-2,3-dioxopiperazine-1-carboxamido)acetamido)-7-fluoro-2-hydroxy-3,4-dihydro-2H-benzo[e][1,2]oxaborinine-8-carboxylic acid], the EC50 in test [1] is < 10 µM. Also, the IC50 in test [2] and in [3] was < 10 µM in each case. Further, the MIC in test [4] was < 1 µg/mL; in test [5], < 1 µg/mL; in test [6], < 1 µg/mL; in test [7], < 1 µg/mL; in test [8], 2 to 4 µg/mL (≈ 2.57 to 5.14 µM); in [9] it was < 1 µg/mL. For the same compound, the MIC in test [10] was < 1 µg/mL; in test [11], 2 to 4 µg/mL (≈ 2.57 to 5.14 µM).
Consider `O=C(NCCCN1CCN(C(=O)NC(C(=O)N[C@H]2Cc3ccc(F)c(C(=O)O)c3OB2O)c2cc(F)c(O)c(O)c2Cl)C(=O)C1=O)c1ccc(F)c(O)c1F` (stereo partly drawn) [Example 411, (3R)-3-(2-(2-chloro-5-fluoro-3,4-dihydroxyphenyl)-2-(4-(3-(2,4-difluoro-3-hydroxybenzamido)propyl)-2,3-dioxopiperazine-1-carboxamido)acetamido)-7-fluoro-2-hydroxy-3,4-dihydro-2H-benzo[e][1,2]oxaborinine-8-carboxylic acid], for which the EC50 in [1] was < 10 µM. Also, the IC50 in test [2] and in test [3] was < 10 µM each time. Further, the MIC in [4] was < 1 µg/mL; in [5], < 1 µg/mL; in test [6], < 1 µg/mL; in test [7], < 1 µg/mL; in [8], 2 to 4 µg/mL (≈ 2.51 to 5.03 µM); in test [9], 2 to 4 µg/mL (≈ 2.51 to 5.03 µM). The figures for the MIC in test [10] and in test [11] were 8 to 16 µg/mL (≈ 10.1 to 20.1 µM) and 2 to 4 µg/mL (≈ 2.51 to 5.03 µM), respectively.
Regarding `O=C(NCCCN1CCN(C(=O)NC(C(=O)N[C@H]2Cc3ccc(F)c(C(=O)O)c3OB2O)c2cc(F)c(O)c(O)c2Cl)C(=O)C1=O)c1c(F)ccc(O)c1F` (stereo partly drawn) [Example 413, (3R)-3-(2-(2-chloro-5-fluoro-3,4-dihydroxyphenyl)-2-(4-(3-(2,6-difluoro-3-hydroxybenzamido)propyl)-2,3-dioxopiperazine-1-carboxamido)acetamido)-7-fluoro-2-hydroxy-3,4-dihydro-2H-benzo[e][1,2]oxaborinine-8-carboxylic acid], the EC50 in test [1] was < 10 µM. Also, the IC50 in [2] and in test [3] was < 10 µM in each case. For the same compound, the MIC in [4] was < 1 µg/mL; in test [5] it was < 1 µg/mL; in test [6], < 1 µg/mL; in test [7], < 1 µg/mL; in test [8], 2 to 4 µg/mL (≈ 2.51 to 5.03 µM); in [9], 2 to 4 µg/mL (≈ 2.51 to 5.03 µM). Besides, the MIC in test [10] and in test [11] was 2 to 4 µg/mL (≈ 2.51 to 5.03 µM) in each case.
On to `O=C(NCCCN1CCN(C(=O)NC(C(=O)N[C@H]2Cc3ccc(F)c(C(=O)O)c3OB2O)c2cc(F)c(O)c(O)c2Cl)C(=O)C1=O)c1c(F)ccc(O)c1Cl` (stereo partly drawn) [Example 414, (3R)-3-(2-(2-chloro-5-fluoro-3,4-dihydroxyphenyl)-2-(4-(3-(2-chloro-6-fluoro-3-hydroxybenzamido)propyl)-2,3-dioxopiperazine-1-carboxamido)acetamido)-7-fluoro-2-hydroxy-3,4-dihydro-2H-benzo[e][1,2]oxaborinine-8-carboxylic acid], for which the EC50 in test [1] is < 10 µM. The IC50 in test [2] and in [3] was < 10 µM throughout. Moreover, the MIC is < 1 µg/mL in test [4]; < 1 µg/mL in test [5]; < 1 µg/mL in test [6]; < 1 µg/mL in test [7]; 2 to 4 µg/mL (≈ 2.46 to 4.92 µM) in test [8]; 2 to 4 µg/mL (≈ 2.46 to 4.92 µM) in [9]. The MIC in test [10] and in test [11] was 2 to 4 µg/mL (≈ 2.46 to 4.92 µM) in each case.
As to `O=C(NCCCN1CCN(C(=O)NC(C(=O)N[C@H]2Cc3ccc(F)c(C(=O)O)c3OB2O)c2cc(F)c(O)c(O)c2Cl)C(=O)C1=O)c1cc(O)c(F)c(O)c1F` (stereo partly drawn) [Example 415, (3R)-3-(2-(2-chloro-5-fluoro-3,4-dihydroxyphenyl)-2-(4-(3-(2,4-difluoro-3,5-dihydroxybenzamido)propyl)-2,3-dioxopiperazine-1-carboxamido)acetamido)-7-fluoro-2-hydroxy-3,4-dihydro-2H-benzo[e][1,2]oxaborinine-8-carboxylic acid], in [1], the EC50 lay in the range of 10 to 50 µM. Also, the IC50 in test [2] and in [3] was < 10 µM each time. The MIC in test [4] is < 1 µg/mL; in [5] it was < 1 µg/mL; in test [6], < 1 µg/mL; in test [7], < 1 µg/mL; in test [8] it was 2 to 4 µg/mL (≈ 2.46 to 4.93 µM); in [9], 2 to 4 µg/mL (≈ 2.46 to 4.93 µM). Besides, the MIC in [10] lay within 2 to 4 µg/mL (≈ 2.46 to 4.93 µM); in [11], 8 to 16 µg/mL (≈ 9.85 to 19.7 µM).
As to `O=C(NCCCN1CCN(C(=O)NC(C(=O)N[C@H]2Cc3ccc(F)c(C(=O)O)c3OB2O)c2cc(F)c(O)c(O)c2Cl)C(=O)C1=O)c1cc(O)c(F)c(O)c1` (stereo partly drawn) [Example 416, (3R)-3-(2-(2-chloro-5-fluoro-3,4-dihydroxyphenyl)-2-(4-(3-(4-fluoro-3,5-dihydroxybenzamido)propyl)-2,3-dioxopiperazine-1-carboxamido)acetamido)-7-fluoro-2-hydroxy-3,4-dihydro-2H-benzo[e][1,2]oxaborinine-8-carboxylic acid], in [1], the EC50 was < 10 µM. Further, the IC50 in test [2] and in test [3] was < 10 µM in each case. Further, the MIC in test [4], in [5], in test [6], in test [7], in test [8] and in test [9] was < 1 µg/mL in each case. Besides, the MIC in test [10] and in test [11] was < 1 µg/mL throughout.
`O=C(NCCCN1CCN(C(=O)NC(C(=O)N[C@H]2Cc3ccc(F)c(C(=O)O)c3OB2O)c2cc(F)c(O)c(O)c2Cl)C(=O)C1=O)c1ccc(O)c(F)c1Cl` (stereo partly drawn) [Example 418, (3R)-3-(2-(4-(3-(2-chloro-3-fluoro-4-hydroxybenzamido)propyl)-2,3-dioxopiperazine-1-carboxamido)-2-(2-chloro-5-fluoro-3,4-dihydroxyphenyl)acetamido)-7-fluoro-2-hydroxy-3,4-dihydro-2H-benzo[e][1,2]oxaborinine-8-carboxylic acid]: the EC50 in [1] was < 10 µM. The IC50 in [2] and in [3] was < 10 µM each time. Moreover, the MIC in test [4] was < 1 µg/mL; in [5] it was < 1 µg/mL; in test [6], < 1 µg/mL; in test [7], < 1 µg/mL; in test [8] it was 2 to 4 µg/mL (≈ 2.46 to 4.92 µM); in [9] it was < 1 µg/mL. Also, the MIC in test [10] is > 128 µg/mL; in test [11], < 1 µg/mL.

The record behind these values is patent US20240270762A1, “PENICILLIN-BINDING PROTEIN INHIBITORS” (priority 2021, published 2024).
